For one assay, the system named is osteosarcoma cells. Kind of assay: Immunofluorescence of cell adhesion and morphology on grafted polymer scaffolds (actin, vinculin, DAPI). It counts as cell-based. As to conditions: polymer scaffold covalently modified with mixture of GFR-binding compound and RGD peptide, 24 hours of culture. How it is done:
FIG. 9 is (a) a representation of a Quantitative Real Time PCR analysis of the expression of DMP-1, SCT and RANK-L in neoplastic cells (osteosarcoma cells) cultured on a native polymer scaffold (control) and on a polymer scaffold grafted with a mixture comprising a GFR-binding compound as defined in the present disclosure and a RGD peptide, after 24 hours of culture, (b) immunofluorescence staining of a representative neoplastic cell (osteosarcoma cells) cultured on a polymer scaffold grafted with a mixture comprising a GFR-binding compound as defined in the present disclosure (ID SEQ NO: 2) and a RGD peptide, after 24 hours of culture. The actin filaments were immunostained by using Alexa 488-phalloidin. The focal adhesions were represented by immunostaining with anti-vinculin. The nucleus was stained with DAPI and is represented by a circle in the center of the cell. Scale bar: 5 μm. (c) is a diagram representing the grafting density of a radiolabeled GFR-binding compound as defined in the present disclosure covalently grafted on a polymer scaffold and of a radiolabeled GFR-binding compound and a non-labeled RGD peptide both grafted on a polymer scaffold. The measurements were performed by using radioactivity quantification (no significant difference was observed). […]

The subject of assay [1] is MG63 cells. Description: p53 protein expression level, immunofluorescence staining quantified with ImageJ, osteosarcoma cells. It counts as cell-based, human. Further details: P53: unit not given here. As to conditions: for P53: Table 9, in association with SiRNA Integrin alpha 3+SiRNA Integrin beta 1 (SEQ ID NO: 141 to 163); for p53 (%): Table 4, cyclic GFR-binding peptide in association with SiRNA Integrin alpha 3 and SiRNA Integrin beta 1, 400 ng/mL, 24 hours. How it is done: (§1) The following starting materials and reagents were used: • Type-I collagen sponge was obtained from Sigma®. • PBS 1× was obtained from Gibco®. • MilliQ water: is water characterised in terms of resistivity (typically 18.2 MΩ·cm at 25° C.). • Low glucose Dulbecco's Modified Eagle Medium (DMEM) was obtained from Invitrogen® • Minimum Essential Medium Eagle without ascorbic acid (αMEM) was obtained from Invitrogen®. • All of the cell culture experiments were carried out without any serum in the medium for the first 8 hours of culture. • Osteosarcoma cells: MG63 cells were obtained from ATCC®. These cells were cultured in DMEM (Eagle's Minimum Essential Medium) medium supplemented with 10% fetal calf serum (FCS) and 1% penicillin/streptomycin. All cells were used at a low passage number (passage 10), were subconfluently cultured and were seeded at 10^4 cells/cm^2 for the purpose of the experiments. • Chondrosarcoma cells Hs819.T cells were obtained from ATCC®. These cells were cultured in DMEM (Eagle's Minimum Essential Medium) medium supplemented with 10% fetal calf serum (FCS) and 1% penicillin/streptomycin. All cells were used at a low passage number (passage 10), were subconfluently cultured and were seeded at 10^4 cells/cm^2 for the purpose of the experiments. • Rhabdomyosarcoma cells: A-673 cells were obtained from ATCC®. These cells were cultured in DMEM (Eagle's Minimum Essential Medium) medium supplemented with 10% fetal calf serum (FCS) and 1% penicillin/streptomycin. All cells were used at a low passage number (passage 10), were subconfluently cultured and were seeded at 10^4 cells/cm^2 for the purpose of the experiments. • Adenocarcinoma cells: HCC4006 cells were obtained from ATCC®. These cells were cultured in RPMI-1640 medium (obtained from ATCC®) supplemented with 10% fetal calf serum (FCS) and 1% penicillin/streptomycin. All cells were used at a low passage number (passage 10), were subconfluently cultured and were seeded at 10^4 cells/cm^2 for the purpose of the experiments. • CMFDA is a Cell Tracker Green obtained from Invitrogen®. • DAPI was obtained from Sigma®. • Fetal bovine serum (FBS) was obtained from Gibco®. • Penicillin/streptomycin was obtained from Invitrogen®. • The AlamarBlue® assay was obtained from Molecular Probes®. • Anti phospho-p53 antibody was obtained from Santa Cruz Biotechnology®, • Anti pRB antibody was obtained from Santa Cruz Biotechnology®, • Monoclonal anti-integrin (extracellular domain) αv, α5, α3, α4, β1, β3, β5 and β9 antibodies were obtained from Santa Cruz Biotechnology®, • Cell cytoskeletal filamentous actin (F-actin) was visualized by Alexa Fluor® 488 phalloidin Sigma® labeling. • Monoclonal anti-vinculin antibody (clone hVIN-1, produced in mouse) was obtained from Sigma®.
(§2) • All of the peptides were synthetized using conventional solution and/or solid phase peptide synthesis methods. • All of the experiments were performed with a concentration of 400 ng/mL of GFR-binding compound(s) as defined herein. • All cell culture experiments were performed with cultures on plastic coated with type-I collagen in order to mimic the physiological conditions of the human body. • The compositions of pharmaceutical compositions used in the examples below are summarized in the following table:
(§3) The cells were first fixed for 20 min with 4% paraformaldehyde/PBS at 4° C. After fixation, the cells were permeabilized in PBS containing 1% Triton X-100 for 15 min. Protein immunofluorescent visualization was performed by first treating the cells with 1% (v/v) specific monoclonal antibodies for 1 hour at 37° C. Then the samples were incubated with Alexa Fluor® 568 or 647 (F(ab′)2 fragment of IgG(H+L)) during 30 min at room temperature. The cell nuclei were counterstained in 20 ng/mL DAPI for 10 min at room temperature.
(§4) For this type of quantification the freeware image analysis ImageJ® software was used. […]

Assay [2] relates to MG63 cells. Description: pRB phosphorylation level, immunofluorescence staining quantified with ImageJ, osteosarcoma cells. Format: cell-based, human. Conditions: MG63 cells; for pRB: Table 9, in association with SiRNA Integrin alpha 3+SiRNA Integrin beta 1 (SEQ ID NO: 141 to 163); for pRB (%): Table 4, cyclic GFR-binding peptide in association with SiRNA Integrin alpha 3 and SiRNA Integrin beta 1, 400 ng/mL, 24 hours. Here is the method:
as §1, §2, §3, §4

A further assay has as its target growth factor receptors. Kind of assay: cell-based or functional assay.

Where no end group is shown, it is not given here.

“SEQ ID NO: 2: GFR-binding compound as defined in the present disclosure, grafted with a RGD peptide on a polymer scaffold (KVGKASSAPTKLSAISMLYLDDMGVPTLKNYQNMVVR; also: grafted with RGD peptide on polymer scaffold)”: the “morphology of neoplastic cells (immunofluorescence)” value in the assay on osteosarcoma cells was “Spheroid-like structures of neoplastic cells become predominant”. Take “CGGGSSVPTELSAISTLYLDDYDKVILKKYRNM (Non-cyclic GFR-binding peptide) [SEQ ID NO: 161]”: the P53 with MG63 cells [1] is 52. In the assay with MG63 cells [2], this molecule registered a pRB of 10. In the assay with MG63 cells [1], “CTVPKPSSAPTQLSPISVLYKDDSSNVILKYHYNMVVRASGSH (Non-cyclic GFR-binding peptide) [SEQ ID NO: 147]” gave a P53 of 37. The pRB in the assay with MG63 cells [2] stood at 8.

The molecule “CKASSVPTELSPISTLYKDENEKVVLKYHYDMVVEGSGSR (Non-cyclic GFR-binding peptide) [SEQ ID NO: 156]” returned a P53 in the assay on MG63 cells [1] of 45. In the assay with MG63 cells [2], this molecule had a pRB of 8. Consider “VPTSSSPISTLYIDKGVVTYLKYHYSSVAEDEYDKVV (not fully specified; also: cyclic peptide) [SEQ ID NO: 38205]”, for which the “p53 (%)” value with MG63 cells [1] is recorded as 40%. For the same molecule, the “pRB (%)” value with MG63 cells [2] came out at 16%. Molecule “CKVPKASSVPTELSAISTLYLAAAALKNYQEM (Non-cyclic GFR-binding peptide) [SEQ ID NO: 152]” registered a P53 in the assay with MG63 cells [1] of 37. The pRB in the assay with MG63 cells [2] was determined as 8. For the molecule “TPTSSSPINTLYFDDMGVPTYGKIPSSVVDDEYDKVV (not fully specified; also: cyclic peptide) [SEQ ID NO: 38207]”, the “p53 (%)” value in the assay on MG63 cells [1] is reported as 41%. The “pRB (%)” value with MG63 cells [2] is on record as 13%. In the assay on MG63 cells [1], “CASAAPSSVPQKLNAISMLYFVGRKPKVLKKYRMIVRS (Non-cyclic GFR-binding peptide) [SEQ ID NO: 157]” returned a P53 of 34. For the same molecule, the pRB in the assay with MG63 cells [2] turned out to be 11. “VPTAASAISILYLDAANNVVLKNYQAAVVEDKGVVTY (also: cyclic peptide) [SEQ ID NO: 38200]”: the “p53 (%)” value with MG63 cells [1] amounted to 41%. The “pRB (%)” value in the assay on MG63 cells [2] was 17%. “CASASPSSVSQDLNAISVLYFIGKTPKILKKYRMIVKSSKSS (Non-cyclic GFR-binding peptide) [SEQ ID NO: 145]”: the P53 in the assay with MG63 cells [1] is reported as 38. Moreover, the pRB with MG63 cells [2] was 6. “CKVGKASSVPTKLSAISTLYLDDMGVPTLKNYQNMVVRASGSH (Non-cyclic GFR-binding peptide) [SEQ ID NO: 142]” returned a P53 in the assay with MG63 cells [1] of 36. The same molecule had a pRB in the assay with MG63 cells [2] of 8.

As for NDEGLECVPTEERPVQVRKIRIKPHQGQKKATVFLQHNK (not fully specified) [GFR-binding compound SEQ ID NO: 54], the p-Smad1/5/8 (%) with growth factor receptors worked out at 41%.

In turn, NDEGLECVPTEERPVQVRKIRIKPHQGQKKATVFLQHNK (not fully specified) [GFR-binding compound SEQ ID NO: 59] returned a p-Smad1/5/8 (%) with growth factor receptors of 34%.

With RNVQCRPTQLEPLPIVYYEIVRKKPEQLSNTLEDHLA (not fully specified) [GFR-binding compound SEQ ID NO: 56], the p-Smad1/5/8 (%) in the assay with growth factor receptors was found to be 47%. For the molecule RNVQCRPTQLEPLPIVYYEIVRKKPEQLSNTLEDHLA (not fully specified) [GFR-binding compound SEQ ID NO: 61], the p-Smad1/5/8 (%) with growth factor receptors is 44%. Regarding VPTHHSAISTLYLELAGEKPLKNYQFLQHNK [GFR-binding compound SEQ ID NO: 57], the p-Smad1/5/8 (%) in the assay with growth factor receptors amounted to 38%. As to VSQDLSAISTLYLKIVRKEPLKNYQEMVEE [GFR-binding compound SEQ ID NO: 58], in the assay with growth factor receptors, the p-Smad1/5/8 (%) is 49%. In turn, ASASPSSVPQDLEPLTILYYVGRTPKVEQLSNMV [GFR-binding compound SEQ ID NO: 55] had a p-Smad1/5/8 (%) with growth factor receptors of 32%.

Source of the values: US20190290729A1, “PHARMACEUTICAL ASSOCIATION OF GROWTH FACTOR RECEPTOR AGONIST AND ADHESION PROTEIN INHIBITOR FOR CONVERTING A NEOPLASTIC CELL INTO A NON-NEOPLASTIC CELL AND USES THEREOF” (HISTIDE AG, priority 2015, published 2019).
